Calls of active or inactive are those of the source. The calls are words filed in the database; no cut-off is given here.
Legend:
[1] = Inhibition of tyrosine-protein kinase pp60v-src
[2] = Inhibition of matrix metalloprotease
[3] = molecular target: GMP synthase [glutamine-hydrolyzing] (Homo sapiens) (UniProt P49915); test: Inhibition of GMPS in human A3.01 cells at 50 uM; assay type: cell-based
[4] = Inhibition of inosine monophosphate dehydrogenase; parameters: unit not given here
[5] = molecular target: T1, Polyunsaturated fatty acid lipoxygenase ALOX15 (Homo sapiens, UniProt P16050); test: Inhibition of 15-lipoxygenase
T1 sequence (P16050 whole entry): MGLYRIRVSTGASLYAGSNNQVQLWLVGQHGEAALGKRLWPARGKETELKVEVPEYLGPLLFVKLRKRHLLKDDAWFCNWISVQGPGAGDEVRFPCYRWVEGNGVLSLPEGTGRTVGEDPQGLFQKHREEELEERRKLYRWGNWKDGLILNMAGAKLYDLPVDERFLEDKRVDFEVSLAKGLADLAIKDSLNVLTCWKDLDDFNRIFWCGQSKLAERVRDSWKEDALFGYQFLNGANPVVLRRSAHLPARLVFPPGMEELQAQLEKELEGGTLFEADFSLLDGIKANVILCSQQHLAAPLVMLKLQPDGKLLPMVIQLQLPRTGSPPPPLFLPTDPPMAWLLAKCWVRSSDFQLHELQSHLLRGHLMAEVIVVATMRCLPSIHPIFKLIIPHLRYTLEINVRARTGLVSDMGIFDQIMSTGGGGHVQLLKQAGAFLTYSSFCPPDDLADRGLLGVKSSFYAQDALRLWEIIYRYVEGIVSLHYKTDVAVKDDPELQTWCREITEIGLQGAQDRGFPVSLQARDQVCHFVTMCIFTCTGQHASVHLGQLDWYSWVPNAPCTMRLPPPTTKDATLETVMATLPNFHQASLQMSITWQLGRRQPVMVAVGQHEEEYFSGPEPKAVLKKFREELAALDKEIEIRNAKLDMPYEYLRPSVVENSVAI

[6] = molecular target: T2, Polyunsaturated fatty acid lipoxygenase ALOX15 (Homo sapiens) (UniProt P16050); test: Inhibition of 15-lipoxygenase at 40 ug/ml; conditions: at 40 µg/mL
T2 sequence (whole entry): T1 sequence (P16050 whole entry)

[7] = Inhibition of PKC

Sequence of GMP synthase [glutamine-hydrolyzing] (Homo sapiens) (P49915 whole entry): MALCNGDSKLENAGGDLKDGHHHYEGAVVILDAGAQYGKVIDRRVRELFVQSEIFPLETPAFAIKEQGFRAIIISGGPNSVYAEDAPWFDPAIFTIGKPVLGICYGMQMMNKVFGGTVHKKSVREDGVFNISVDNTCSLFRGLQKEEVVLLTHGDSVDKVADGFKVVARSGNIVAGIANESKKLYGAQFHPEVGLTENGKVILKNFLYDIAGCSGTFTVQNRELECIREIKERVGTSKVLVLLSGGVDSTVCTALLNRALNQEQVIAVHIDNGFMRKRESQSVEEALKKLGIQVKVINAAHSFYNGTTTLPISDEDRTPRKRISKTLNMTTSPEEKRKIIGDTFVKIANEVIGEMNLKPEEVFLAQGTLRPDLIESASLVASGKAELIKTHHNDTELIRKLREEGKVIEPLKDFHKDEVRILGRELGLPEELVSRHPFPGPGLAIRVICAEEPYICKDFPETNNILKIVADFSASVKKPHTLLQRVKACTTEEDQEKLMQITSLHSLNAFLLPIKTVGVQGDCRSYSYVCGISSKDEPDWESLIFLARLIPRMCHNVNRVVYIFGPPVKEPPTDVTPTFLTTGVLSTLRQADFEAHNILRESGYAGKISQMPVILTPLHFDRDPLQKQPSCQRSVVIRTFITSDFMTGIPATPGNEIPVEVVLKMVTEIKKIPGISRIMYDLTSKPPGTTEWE

For `Oc1c(Br)cc(Br)cc1Oc1c(Br)cc(Br)c(Br)c1O`, the Activity [1] was “inactive”, the Activity [2] was “inactive” and the inhibition [3] was 70%. For the same compound, the EC50 [4] was 7.8 and the IC50 [5] was 2.5 µM.

With `Oc1c(Oc2ccc(Br)cc2Br)cc(Br)c(Br)c1Br` the Activity [1] was “inactive”, the Activity [2] was “inactive” and the inhibition [3] was 71%. For the same compound, the EC50 [4] was 4.4 and the IC50 [5] was 7.4 µM.

For `Oc1cc(Br)cc(Br)c1Oc1c(O)cc(Br)c(Br)c1Br`, the inhibition [6] was 100%.

With `Oc1cc(Br)cc(Br)c1Oc1ccc(Br)cc1Br` the Activity [1] was “inactive”, the Activity [2] was “inactive” and the inhibition [3] was 56%. The EC50 [4] was 5.71.

With `Oc1cc(Br)c(Br)c(Br)c1Oc1ccc(Br)cc1Br` the Activity [1] was “inactive”, the Activity [2] was “inactive” and the inhibition [3] was 99%. It also gave an EC50 [4] of 4 and an IC50 [5] of 7.4 µM.

In the case of `COc1cc(Br)cc(Br)c1Oc1cc(Br)cc(Br)c1O`, the Activity [1] is reported as “inactive”.

For `Oc1cc(Br)c(Br)c(Br)c1Oc1cc(Br)cc(Br)c1O`, the Activity [1] was “inactive”, the Activity [2] was “inactive” and the inhibition [3] was 89%.

With `COc1c(Br)cc(Br)cc1Oc1c(O)cc(Br)cc1Br` the Activity [1] was “inactive”.

For `Oc1c(Br)cc(Br)cc1Oc1c(O)c(Br)c(Br)c(Br)c1Br`, the Activity [1] was “inactive”, the Activity [2] was “inactive” and the inhibition [3] was 96%. For the same compound, the EC50 [4] was 2.79, the Activity [7] was “inactive” and the IC50 [5] was 1.3 µM.

With `Oc1c(Br)cc(Br)cc1Oc1ccc(Br)cc1Br` the Activity [1] was “inactive”.

Source: ChEMBL document CHEMBL1159289, “Enzyme inhibitors: new and known polybrominated phenols and diphenyl ethers from four Indo-Pacific Dysidea sponges” (J Nat Prod, 1995)
